Results taken from patent US20080170990A1, “Methods for Myocardial Imaging in Patients Having a History of Pulmonary Disease” (CV THERAPEUTICS, INC., priority 2006, published 2008).

Tests used:
[1] = system: patients undergoing a clinically indicated coronary catheterization; experiment: Dose-ranging study of coronary flow velocity, heart rate and blood pressure after IV bolus (Example 2); type: in vivo, human
Method: The study included patients undergoing a clinically indicated coronary catheterization with no more than a 70% stenosis in any coronary artery and no more than a 50% stenosis of the study vessel had CBFv determined by Doppler flow wire. Study subject were selected after measuring baseline and peak CBFv after an intracoronary (IC) injection of 18 μg of Ado. 36 subjects were identified as meeting the study criteria of having a peak to baseline CBFv ration of ≧2.5 in response to Adenosine,
Regadenoson was administered to the study subjects by IV bolus in less than 10 seconds in amounts ranging from 10 μg to 500 μg. Regadenoson is selective for the A2A adenosine receptor.
The effectiveness of both compounds was measured by monitoring coronary flow velocity. Other coronary parameters that were monitored included heart rate and blood pressure. These parameters were measured in order to evaluate the time to peak dose response, the magnitude of the dose response and the duration of the dose response. Adverse events were also monitored. Coronary blood flow velocity was measured at the LAD or LCx vessel. The velocity measurements were taken by following standard heart catheterization techniques and inserting a 0.014 inch Doppler-tipped Flowire into the LAD or LCx vessel and thereafter monitoring blood flow velocity. In addition, hemodynamic and electrocardiographic measurements were recorded continuously.
Overall, 36 human subjects (n=36) were evaluated. Of the 36, 18 were female and 18 were male. Their mean age was 53.4 and they ranged from 24-72 years in age. Of the 36 subjects evaluated, the LAD vessel of 31 subjects was monitored, and the LCx vessel of 5 subjects was monitored. The following doses (μg) of Regadenoson were given to the subjects in a single iv bolus: 10 (n=4); 30 (n=6); 100 (n=4); 300 (n=7); 400 (n=9); 500 (n=6).

[2] = system: awake rats; experiment: Sympathoexcitation: heart rate, blood pressure and plasma catecholamines after i.v. bolus (Example 5); type: in vivo, rat
Method: CVT (0.31 μg/kg-50 μg/kg) was given as a rapid i.v. bolus to awake rats and heart rate (HR) and blood pressure (BP) were monitored. Regadenoson caused an increase in BP and systolic pressure (SP) at lower doses while at higher doses there was a decrease in BP and SP. […] The increase in HR was evident at the lowest dose of CVT at which there was no appreciable decrease in BP. ZM241385 (30 μg/kg, N=5), an A2A adenosine receptor antagonist, attenuated the decrease in BP (Regadenoson: 14±3%, ZM: 1±1%) and the increase in HR (CVT: 27±3%, ZM: 18±3%) caused by Regadenoson. Pretreatment with metoprolol (MET, 1 mg/kg, n=5), a beta-blocker, attenuated the increase in HR (CVT: 27±3%, MET: 15±2%), but had no effect on hypotension caused by Regadenoson. In the presence of hexamethonium (HEX, 10 mg/kg, n=5), a ganglionic blocker, the tachycardia was prevented (CVT: 27±3%, HEX: −1±2%), but BP was further reduced (CVT: −11±2%, HEX: −49±5%).

[3] = system: subjects undergoing pharmacologic stress MPI; experiment: Adverse effects and hemodynamics in pharmacologic stress myocardial perfusion imaging protocol (Example 7); type: in vivo, human
Text: 36 subjects (27 men, 9 women; 67±10 years) were studied with two doses of Regadenoson [400 mcg (n=18), 500 mcg (n=18)], administered as an IV bolus, as part of a pharmacologic stress myocardial perfusion imaging protocol.

[4] = 400 μg IV bolus, about 1 minute after dosing
[5] = 400 or 500 mcg IV bolus, 36 subjects

## CNC(=O)c1cnn(-c2nc(N)c3ncn([C@@H]4O[C@H](CO)[C@@H](O)[C@H]4O)c3n2)c1 [Regadenoson, (1-{9-[(4S,2R,3R,5R)-3,4-dihydroxy-5-(hydroxymethyl)oxolan-2-yl]-6-aminopurin-2-yl}pyrazol-4-yl)-N-methylcarboxamide]
[1]; [4]
  maximum decrease in diastolic BP: 10±5 mmHg
  maximum decrease in systolic BP: 20±8 mmHg
  maximum increase in heart rate: 18±8 bpm
[1]; 10-500 μg IV bolus
  tolerability: generally well tolerated
[1]; IV bolus
  amount at which plateau peak flow velocity is reached: less than 100 μg
  lowest amount that increases peak flow velocity: 10 µg
[1]; all doses (10-500 μg IV bolus)
  time to peak flow: about 30 seconds
[1]; doses above about 100 μg
  peak effects compared with adenosine: equivalent to 18 μg ic adenosine
[2]; 0.31 μg/kg-50 μg/kg rapid i.v. bolus
  effect on HR: dose-dependent increase in HR
[2]; CVT alone (hexamethonium experiment)
  BP change caused by Regadenoson: −11±2%
[2]; CVT alone (printed three times: ZM, MET, HEX comparisons)
  increase in HR caused by Regadenoson: 27±3%
[2]; Regadenoson alone (ZM241385 experiment)
  decrease in BP caused by Regadenoson: 14±3%
[3]; 400-mcg group
  incidence of dizziness: 11%
  incidence of dyspnea: 17%
  incidence of flushing: 17%
[3]; 400 mcg dose
  mean change in HR response: 34.8%
[3]; [5]
  patients with adverse effects (AE): 72%
  patients with adverse effects (AE), number: 26 pts
[3]; 500-mcg group
  incidence of dizziness: 28%
  incidence of dyspnea: 44%
  incidence of flushing: 44%
[3]; 500 mcg dose
  mean change in HR response: 44.2%
[3]; both doses
  incidence of abdominal pain: 11%
  incidence of chest discomfort: 33%
  incidence of headache: 25%
[3]; either dose
  lowest systolic BP (did not fall below): ≥ 90 mmHg
[3]; exacerbation of a migraine headache, required hospitalization
  serious AE: One serious AE occurred
[3]; in vivo
  AEs resolved within 15 min without treatment: 91%
  AEs that were mild to moderate: 96%
  AV block and arrhythmias: No 2nd or 3rd degree AV block was noted and there were no serious arrhythmias
  patients developing ST abnormalities: 7 pts
  patients developing T wave abnormalities: 5 pts
  time of peak hemodynamic effect, diastolic BP: 8 min
  time of peak hemodynamic effect, heart rate: ≤ 2 min
  time of peak hemodynamic effect, systolic BP: 4 min
[3]; mean ±S.D., 400 and 500 mcg
  Diastolic BP, Absolute Change (peak): −5.4 ± 7.2 mmHg
  Diastolic BP, Relative Change (peak): −7.9% ± 10.5%
  Heart Rate, Absolute Change (peak): +21.9 ± 10.4 beats per min
  Heart Rate, Relative Change (peak): +36.7% + 21.0%
  Systolic BP, Absolute Change (peak): −5.9 ± 10.7 mmHg
  Systolic BP, Relative Change (peak): −4.1% ± 7.6%
[3]; thirty min after Regadenoson
  BP deviation from baseline: < 2%
  HR above baseline: 8.6%
